Results from publication PMC12113998, “Exploring Multivalent Architectures for Binding and Stabilization of N-Acetylgalactosamine 6-Sulfatase” (Molecules, 2025).

Biological target: T1, rhGALNS VIMIZIM® (Homo sapiens, UniProt P34059)
T1 construct: purchased BioMarin (VIMIZIM, elosulfase alfa)
T1 sequence (P34059 27-522): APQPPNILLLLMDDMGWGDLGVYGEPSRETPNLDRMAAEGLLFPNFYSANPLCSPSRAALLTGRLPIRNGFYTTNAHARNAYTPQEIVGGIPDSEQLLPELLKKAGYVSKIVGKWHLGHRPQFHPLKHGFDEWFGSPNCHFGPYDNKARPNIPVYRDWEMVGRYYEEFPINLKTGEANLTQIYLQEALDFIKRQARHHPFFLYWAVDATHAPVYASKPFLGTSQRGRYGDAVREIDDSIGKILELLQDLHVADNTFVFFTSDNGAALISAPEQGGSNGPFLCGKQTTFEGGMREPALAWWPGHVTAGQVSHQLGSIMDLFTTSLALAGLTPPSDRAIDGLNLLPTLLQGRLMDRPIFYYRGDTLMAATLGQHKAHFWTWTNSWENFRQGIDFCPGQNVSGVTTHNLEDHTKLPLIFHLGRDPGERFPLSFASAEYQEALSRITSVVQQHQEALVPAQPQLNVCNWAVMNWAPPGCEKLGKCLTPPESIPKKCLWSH
Assay: Stabilization of rhGALNS under thermal denaturation (48 °C, 40 and 60 min)
Format: biochemical
Method: The promising IC50 values observed for 1 and 36 prompted us to assess their effects on the commercially available wild-type recombinant GALNS (rhGALNS VIMIZIM®). […] Building on these findings, we investigated the potential stabilizing effect of these compounds on the tertiary structure of GALNS through a thermal denaturation study. rhGALNS was preincubated with varying concentrations of the compounds before being subjected to heating at 48 °C for 40 and 60 min. The relative enzyme activity was expressed as the ratio between the activity measured after thermal denaturation at 48 °C and that obtained under physiological conditions at 37 °C.
Figure 3 Stabilization of rhGALNS VIMIZIM® in the presence of 1 (A) and 36 (B) was evaluated in vitro by using heat inactivation. Relative enzymatic activity after thermal treatment (48 °C) for 40 and 60 min at the indicated inhibitor concentrations (μM) with respect to the corresponding assay at 37 °C (no denaturation). Data for control were obtained as above except that no inhibitor was present. Experiments were performed in triplicate (see Supporting Information). […]
The thermal stability induced by 1 and 36 against rhGALNS VIMIZIM® was determined by measuring the hydrolysis rate with 4-methylumbelliferyl-β-galactoside-6-sulfate.Na (6.66 mM) after denaturation of enzyme at 48 °C for 40 minutes or 60 minutes with or without (Ctrl) different concentrations of compounds. […]
After incubation 20 µL of 4-methylumbelliferyl-β-galactoside-6-sulfate.Na substrate solution in Na-Acetate/acetic acid buffer (0.1 M/0.1 M, pH 4.3) containing 0.1 M NaCl, 0.02% (w/v) NaN3 and 5 mM Pb-acetate was added. […] Fluorescence was measured in a SpectraMax M2 microplate reader (Molecular-Devices) using a 365 nm excitation wavelength and a 435 nm emission wavelength. […]
Figure S57. Activity of rhGALNS VIMIZIM® was determined after incubation for 0 minutes or 40 minutes or 60 minutes at 48 °C with or without (Ctrl) different concentrations of 1 by measuring the hydrolysis rate 4-methylumbelliferyl-β-galactoside-6-sulfate.Na. […]

| enzyme activity with respect to the control after thermal denaturation (30 µM compound, 40 min) [fold] | enzyme activity with respect to the control after thermal denaturation (30 µM compound, 60 min) [fold] | enzyme activity with respect to the control after thermal denaturation (500 µM compound, both time points (40 and 60 min)) | SMILES |
| --- | --- | --- | --- |
| 1.3 | 2.4 | – | OCC1C(O)C(O)CN1CCCCCCn1cc(COCC(COCc2cn(CCCCCCN3CC(O)C(O)C3CO)nn2)(COCc2cn(CCCCCCN3CC(O)C(O)C3CO)nn2)NCc2cc(CNC(COCc3cn(CCCCCCN4CC(O)C(O)C4CO)nn3)(COCc3cn(CCCCCCN4CC(O)C(O)C4CO)nn3)COCc3cn(CCCCCCN4CC(O)C(O)C4CO)nn3)cc(CNC(COCc3cn(CCCCCCN4CC(O)C(O)C4CO)nn3)(COCc3cn(CCCCCCN4CC(O)C(O)C4CO)nn3)COCc3cn(CCCCCCN4CC(O)C(O)C4CO)nn3)c2)nn1 (stereo not drawn) [Compound 36] |
| – | – | around two-fold | O=C(NC(COCc1cn(CCCCCCN2CC(O)C(O)C2CO)nn1)(COCc1cn(CCCCCCN2CC(O)C(O)C2CO)nn1)COCc1cn(CCCCCCN2CC(O)C(O)C2CO)nn1)c1cc(C(=O)NC(COCc2cn(CCCCCCN3CC(O)C(O)C3CO)nn2)(COCc2cn(CCCCCCN3CC(O)C(O)C3CO)nn2)COCc2cn(CCCCCCN3CC(O)C(O)C3CO)nn2)cc(C(=O)NC(COCc2cn(CCCCCCN3CC(O)C(O)C3CO)nn2)(COCc2cn(CCCCCCN3CC(O)C(O)C3CO)nn2)COCc2cn(CCCCCCN3CC(O)C(O)C3CO)nn2)c1 (stereo not drawn) [Compound 1] |
